Results published in publication PMC5607274, “An iterative compound screening contest method for identifying target protein inhibitors using the tyrosine-protein kinase Yes” (Scientific Reports, 2017).

Biological target: T1, human recombinant Yes [a.a. 2–543 (end)] (Homo sapiens, UniProt P07947)
T1 construct: human recombinant Yes [a.a; 2–543 (end)]; purchased BPS Bioscience 40488
Assay: ADP-Glo kinase assay, inhibition rates of Yes phosphorylation activity (first and second screening)
Assay type: biochemical
Conditions: 10 μmol L−1 compound; for First screening IR (inhibition rate): mean of n = 4 wells
Procedure, shortened: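 ADP-Glo luminescence measured inhibition of human recombinant Yes (a.a. 2–543) phosphorylation activity. In the first screen, each compound ran in 4 wells and inhibition rates were averaged. The second screen retested hits as compounds dissolved from fresh powder.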

T1 sequence (P07947 2-543): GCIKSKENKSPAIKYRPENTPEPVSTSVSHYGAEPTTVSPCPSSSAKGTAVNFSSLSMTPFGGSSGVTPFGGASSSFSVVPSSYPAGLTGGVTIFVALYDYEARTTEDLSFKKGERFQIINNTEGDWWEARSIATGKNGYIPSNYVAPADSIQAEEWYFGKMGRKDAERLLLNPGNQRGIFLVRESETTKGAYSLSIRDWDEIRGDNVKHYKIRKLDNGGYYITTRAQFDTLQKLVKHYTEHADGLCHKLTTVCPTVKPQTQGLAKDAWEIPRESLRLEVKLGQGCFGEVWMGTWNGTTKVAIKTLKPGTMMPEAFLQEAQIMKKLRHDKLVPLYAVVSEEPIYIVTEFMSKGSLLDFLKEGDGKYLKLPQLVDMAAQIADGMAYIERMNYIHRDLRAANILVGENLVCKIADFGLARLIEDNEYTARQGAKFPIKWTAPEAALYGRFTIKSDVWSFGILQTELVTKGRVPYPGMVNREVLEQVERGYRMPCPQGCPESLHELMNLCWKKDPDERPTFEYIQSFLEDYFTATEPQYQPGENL

Row | SMILES | First screening IR (inhibition rate) | Second screening IR (inhibition rate) (second screening, dissolved from fresh powder, n = 4)
1 | CCN(CC)C(=O)CN1CCCN(c2ncnc3c2cnn3C)CC1 [Compound Z359324360] | -4% | 
2 | O=C(/C=C/c1cc2ccccc2nc1N1CCOCC1)c1ccc(S(=O)(=O)N2CCCC2)cc1 [Compound Z46590414] | 1% | 
3 | COc1ccc(-c2csc3nc(C)nc(N4CCCN(CC(=O)NC(C)(C)C)CC4)c23)cc1OC [Compound Z128141646] | -7% | 
4 | Cc1cccc(N2CCN(C(=O)C3CCN(C(=O)C4CC4)CC3)CC2)c1C [Compound Z26849648] | -2% | 
5 | COc1ccc2c(c1)CC/C(=C\c1cccc(C)c1)C2=O [Compound Z46584406] | -6% | 
6 | O=C(Nc1ccccc1OC(F)F)c1ccc2c(c1)C(=O)N(Cc1ccncc1)C2=O [Compound Z27081729] | 20% | 
7 | Cc1cc(C)n(CCCNC(=O)c2cc3cc(F)ccc3[nH]2)n1 [Compound Z301214762] | 8% | 
8 | Cc1ccc(C(=O)C(Sc2nnc(C3COc4ccccc4O3)n2C)c2ccc(C)cc2)cc1 (centres unmarked) [Compound Z24312958] | 0% | 
9 | Cl.Fc1cccc(F)c1-c1cc(-c2ccccc2)c2ccccc2n1 [Compound Z48951059] | 4% | 
10 | CNc1ccc(/C=C2/CC(C)Cc3c2nc2ccccc2c3C(=O)O)cc1[N+](=O)[O-] (centres unmarked) [Compound Z46108034] | 11% | 
11 | Cc1cc(=O)[nH]c(C(C)Sc2ncn(-c3ccccc3)n2)n1 (centres unmarked) [Compound Z1415883225] | 34% | 
12 | Cc1ccc(NC(=O)c2ccc(N3CC(O)=C(c4nc5ccccc5s4)C3=N)cc2)c(O)c1 [Compound Z425227654] | 1% | 
13 | CC(Nc1ccc([N+](=O)[O-])cc1[N+](=O)[O-])c1nnc2ccccn12 (centres unmarked) [Compound Z128086498] | -9% | 
14 | CN(C)c1ccc(C(CNc2ncccc2C#N)c2c[nH]c3ccccc23)cc1 (centres unmarked) [Compound Z31123519] | 0% | 
15 | Cc1nn(C)c2nc(-c3ccccc3)cc(C(=O)Nc3ccc4[nH]c(=O)[nH]c4c3)c12 [Compound Z228695802] | -6% | 
16 | COc1cc(CNC(=O)C2CCCN2C(C)=O)ccc1OCc1cccnc1 (centres unmarked) [Compound Z396609184] | 7% | 
17 | COc1cccc(NC(=O)COc2ncnc3ccccc23)c1 [Compound Z18537695] | -1% | 
18 | Cn1cc(Nc2nccc(C(F)(F)F)n2)cn1 [Compound Z646439314] | 5% | 
19 | CN(C)c1ccc(NC(=O)N(C)C2CS(=O)(=O)c3ccc(Cl)cc32)cn1 (centres unmarked) [Compound Z1688689058] | -9% | 
20 | CN(Cc1ccc(N2CCOCC2)cc1)Cc1c(O)ccc2ccncc12 [Compound Z199499666] | -18% | 
21 | CC(C)n1ncc2c(C(=O)Nc3ccc(F)c([N+](=O)[O-])c3)cc(-c3ccco3)nc21 [Compound Z216541962] | -1% | 
22 | CN(C)c1ccc(/C=c2/s/c(=C/C(=O)C(C)(C)C)[nH]c2=O)cc1 [Compound Z46615661] | -8% | 
23 | Cc1sc2nc(-c3cccnc3)nc(NC3CC3)c2c1C [Compound Z31232965] | -3% | 
24 | NC(=O)c1cc(NC(=O)c2cccnc2Nc2cccc(F)c2)n[nH]1 [Compound Z1451063255] | 2% | 
25 | CC(C)S(=O)(=O)CCS(=O)(=O)Cc1ccccc1 [Compound Z1347350572] | 2% | 
26 | COCCn1cnc2c1c(=O)n(CC(=O)NC(=O)NC1CCCCC1C)c(=O)n2Cc1ccccc1 (centres unmarked) [Compound Z24102979] | -2% | 

Row | SMILES | First screening IR (inhibition rate) | Second screening IR (inhibition rate) (second screening, dissolved from fresh powder, n = 4)
27 | CS(=O)(=O)c1ccc(Cl)c(S(C)(=O)=O)c1 [Compound Z87002147] | 0% | 
28 | CCNC(=O)c1cc(-c2ccccc2)nc2c1cnn2Cc1ccccc1 [Compound Z227991512] | 6% | 
29 | Cc1cc(C)n(CCCNC(=O)c2[nH]c3c(c2C)C(=O)CCC3)n1 [Compound Z51995634] | 3% | 
30 | Nc1c2c(nc3sc4c(c13)CCCC4)-c1ccccc1CC2 [Compound Z56772171] | -17% | 
31 | O=C(CS(=O)(=O)CCCc1ccccc1)Nc1ccc(-n2ccnc2)nc1 [Compound Z407006622] | -20% | 
32 | Cc1ccc(-c2c3c(nc4sc5c(c24)CCC5)CCC(C(C)(C)C)C3)cc1.Cl (centres unmarked) [Compound Z48952614] | 4% | 
33 | CCN(CCO)c1nc(-c2ccccn2)nc2scc(-c3ccccc3)c12 [Compound Z31238841] | 19% | 
34 | CC1=CC(=C(C#N)c2nc3ccccc3s2)C=C(C)N1c1ccc2c(c1)OCCO2 [Compound Z223450274] | -6% | 
35 | O=S(=O)(c1cccc(-c2n[nH]c(-c3ccccc3)c2-c2nc3ccccc3[nH]2)c1)N1CCCC1 [Compound Z56870429] | -20% | 
36 | Nc1ncnc(Nc2ccc(F)cc2)n1 [Compound Z56931701] | -4% | 
37 | COc1ccc(CSCc2nc(N)nc(Nc3ccccc3C)n2)cc1F [Compound Z45342622] | 6% | 
38 | O=C(Nc1cccc(Cn2ccnc2)c1)c1cc2c(s1)-c1ccccc1OC2 [Compound Z362662212] | 6% | 
39 | Cn1ccnc1C(O)(CCNC(=O)c1cccc(-c2cnc3[nH]c(=O)n(C)c3c2)c1)C(F)(F)F (centres unmarked) [Compound Z1723428243] | 17% | 
40 | CCCn1nccc1NC(=O)CN(C)C(C)c1cccc(-c2ccncc2)c1 (centres unmarked) [Compound Z1587266149] | 17% | 
41 | Cc1ncc2c(n1)CCN(C(=O)NCc1cc(-c3ccccc3)no1)C2 [Compound Z558380580] | 1% | 
42 | COc1ccc(C(CNC(=O)c2ccc3c(c2)NC(=O)C(C)S3)N(C)C)cc1 (centres unmarked) [Compound Z26596638] | 27% | 
43 | CC1CC(CNC(=O)c2ccc(O)cc2F)CN1Cc1ccccc1 (centres unmarked) [Compound Z1735017324] | 2% | 
44 | COc1cccc(-c2nnc(SCC(=O)N3CCOCC3)n2-c2ccc(C)cc2)c1 [Compound Z19982748] | 27% | 
45 | Cl.Clc1ccc(-c2cc(-c3ccccc3)c3cc(Cl)ccc3n2)cc1 [Compound Z48950819] | 36% | -13%
46 | Cc1cccc(C(C)C)c1NC(=O)CSc1nc2ccc(Cl)cc2[nH]1 [Compound Z16257955] | 4% | 
47 | Nc1ncnc(Nc2ccccc2)n1 [Compound Z56768427] | 16% | 
48 | NS(=O)(=O)c1cccc(S(=O)(=O)Cl)c1 [Compound Z237480338] | 3% | 
49 | CC1CCCC(NC(=S)Nc2cccc(S(=O)(=O)N(C)C)c2)C1C (centres unmarked) [Compound Z45768220] | 27% | 
50 | Cc1[nH]ncc1Nc1ccc2nccnc2n1 [Compound Z1182665660] | 6% | 
51 | CSc1ncccc1C(=O)OCC(=O)N1N=C(c2ccc3ccccc3c2)CC1c1ccccc1 (centres unmarked) [Compound Z18838070] | 9% | 
52 | Fc1ccc(-n2cc(-c3ccccc3)c3c(N4CCOCC4)ncnc32)cc1 [Compound Z57455467] | 5% | 
